# According to patent publication US20150344540A1, “NOVEL GLP-1 RECEPTOR AGONISTS WITH CHOLESTEROL EFFLUX ACTIVITY” (NOVO NORDISK A/S, priority 2012, published 2015):
# Where a SMILES comes first, the peptide text is derived from it. [ ]: non-standard residue; d: D form. Aib = CC(C)(N)C(=O)O
# Tested on: Mouse monocyte/macrophage cell line, RAW 264.7
# Test: Cholesterol efflux assay (3H-cholesterol, macrophage cell line)
# Type: cell-based
# Conditions: RAW 264.7, 4 hrs incubation, 0.1% human serum albumin; for 4 h Cholesterol Efflux Emax: ABCA1-mediated efflux; for EC50: read-out: 4 h Cholesterol Efflux EC50, ABCA1-mediated efflux (CPT-cAMP induced minus non-induced)
Compound,4 h Cholesterol Efflux Emax [%],EC50 [nM]
"CC[C@H](C)[C@H](NC(=O)[C@H](Cc1ccccc1)NC(=O)[C@H](CCC(=O)O)NC(=O)[C@H](CCCCN)NC(=O)[C@@H](NC(=O)[C@H](C)NC(=O)[C@H](CCC(=O)O)NC(=O)CNC(=O)[C@H](CCC(=O)O)NC(=O)[C@H](CC(C)C)NC(=O)[C@H](Cc1ccc(O)cc1)NC(=O)[C@H](CO)NC(=O)[C@H](CO)NC(=O)[C@@H](NC(=O)[C@H](CC(=O)O)NC(=O)[C@H](CO)NC(=O)[C@@H](NC(=O)[C@H](Cc1ccccc1)NC(=O)[C@@H](NC(=O)CNC(=O)[C@H](CCC(=O)O)NC(=O)C(C)(C)NC(=O)[C@@H](N)Cc1c[nH]cn1)[C@@H](C)O)[C@@H](C)O)C(C)C)C(C)C)C(=O)N[C@@H](C)C(=O)N[C@@H](Cc1c[nH]c2ccccc12)C(=O)N[C@@H](CC(C)C)C(=O)N[C@H](C(=O)N[C@@H](CCC(=O)O)C(=O)N[C@@H](CCCCN)C(=O)NC(C)(C)C(=O)N[C@@H](CCCCN)C(=O)N[C@@H](CCC(=O)O)C(=O)N[C@@H](Cc1ccccc1)C(=O)N[C@@H](CC(C)C)C(=O)N[C@@H](CCC(=O)O)C(=O)N[C@@H](CCCCN)C(=O)N[C@H](C(=O)O)C(C)C)C(C)C [Compound 98, [Aib8,Glu23,Val25,Glu34,Lys35,Aib36,Lys37]-GLP-1-(7-37)-peptidyl-Glu-Phe-Leu-Glu-Lys-Val]",132,430
"CC[C@H](C)[C@H](NC(=O)[C@H](Cc1ccccc1)NC(=O)[C@H](CCC(=O)O)NC(=O)[C@H](CCCCN)NC(=O)[C@@H](NC(=O)[C@H](C)NC(=O)[C@H](CCC(=O)O)NC(=O)CNC(=O)[C@H](CCC(=O)O)NC(=O)[C@H](CC(C)C)NC(=O)[C@H](Cc1ccc(O)cc1)NC(=O)[C@H](CO)NC(=O)[C@H](CO)NC(=O)[C@@H](NC(=O)[C@H](CC(=O)O)NC(=O)[C@H](CO)NC(=O)[C@@H](NC(=O)[C@H](Cc1ccccc1)NC(=O)[C@@H](NC(=O)CNC(=O)[C@H](CCC(=O)O)NC(=O)C(C)(C)NC(=O)[C@@H](N)Cc1c[nH]cn1)[C@@H](C)O)[C@@H](C)O)C(C)C)C(C)C)C(=O)N[C@@H](C)C(=O)N[C@@H](Cc1c[nH]c2ccccc12)C(=O)N[C@@H](CC(C)C)C(=O)N[C@H](C(=O)N[C@@H](CCC(=O)O)C(=O)N[C@@H](CCCCN)C(=O)NC(C)(C)C(=O)N[C@@H](CCCCN)C(=O)N[C@@H](CCC(=O)O)C(=O)N[C@@H](Cc1ccccc1)C(=O)N[C@@H](CC(C)C)C(=O)N[C@@H](CCC(=O)O)C(=O)O)C(C)C [Compound 100, [Aib8,Glu23,Val25,Glu34,Lys35,Aib36,Lys37]-GLP-1-(7-37)-peptidyl-Glu-Phe-Leu-Glu]",104,690
"CC[C@H](C)[C@H](NC(=O)[C@H](Cc1ccccc1)NC(=O)[C@H](CCC(=O)O)NC(=O)[C@H](CCCCN)NC(=O)[C@@H](NC(=O)[C@H](C)NC(=O)[C@H](CCC(=O)O)NC(=O)[C@@H]1CCCN1C(=O)[C@H](CCC(=O)O)NC(=O)[C@H](CC(C)C)NC(=O)[C@H](Cc1ccc(O)cc1)NC(=O)[C@H](CO)NC(=O)[C@H](CO)NC(=O)[C@@H](NC(=O)[C@H](CC(=O)O)NC(=O)[C@H](CO)NC(=O)[C@@H](NC(=O)[C@H](Cc1ccccc1)NC(=O)[C@@H](NC(=O)CNC(=O)[C@H](CCC(=O)O)NC(=O)C(C)(C)NC(=O)[C@@H](N)Cc1c[nH]cn1)[C@@H](C)O)[C@@H](C)O)C(C)C)C(C)C)C(=O)N[C@@H](C)C(=O)N[C@@H](Cc1c[nH]c2ccccc12)C(=O)N[C@@H](CC(C)C)C(=O)N[C@H](C(=O)N[C@@H](CCC(=O)O)C(=O)N[C@@H](CCCCN)C(=O)NC(C)(C)C(=O)N[C@@H](CCCCN)C(=O)N[C@@H](CCC(=O)O)C(=O)N[C@@H](Cc1ccccc1)C(=O)N[C@@H](CC(C)C)C(N)=O)C(C)C [Compound 101, [Aib8,Pro22,Glu23,Val25,Glu34,Lys35,Aib36,Lys37]-GLP-1-(7-37)-peptidyl-Glu-Phe-Leu amide] (H-H[Aib]EGTFTSDVSSYLEPEAVKEFIAWLVEK[Aib]KEFL-NH2; N-terminus assumed)",92,280
